PubChem BioAssay (NCI)
Values joined by “and” are separate entries in the source; they are usually repeats but may differ in a detail not shown here. Equal entries are not always repeated.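 Following 48 hours of exposure in 96-well plates, responses at five concentrations were used to interpolate endpoints linearly. Abbreviation: GI50, concentration required for 50% inhibition of growth. At the TGI there is no net growth.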

Key:
Experiment in all cases: growth of human tumour cells (NCI), 48 h
MOLT-4 leukemia = tested on: MOLT-4 leukemia
UO-31 renal = tested on: UO-31 renal
HOP-92 NSCLC = tested on: HOP-92 NSCLC
HCT-15 colon = tested on: HCT-15 colon
DU-145 prostate = tested on: DU-145 prostate
SR leukemia = tested on: SR leukemia
SK-MEL-5 melanoma = tested on: SK-MEL-5 melanoma
HCT-116 colon = tested on: HCT-116 colon
BT-549 breast = tested on: BT-549 breast
OVCAR-4 ovarian = tested on: OVCAR-4 ovarian

SMILES | TGI (MOLT-4 leukemia) | TGI (UO-31 renal) | TGI (HOP-92 NSCLC) | TGI (HCT-15 colon) | TGI (DU-145 prostate) | TGI (SR leukemia) | TGI (SK-MEL-5 melanoma) | TGI (HCT-116 colon) | TGI (BT-549 breast) | TGI (OVCAR-4 ovarian) | GI50 (MOLT-4 leukemia) | GI50 (UO-31 renal) | GI50 (HOP-92 NSCLC) | GI50 (HCT-15 colon) [nM] | GI50 (DU-145 prostate) [nM] | GI50 (SR leukemia) [nM] | GI50 (SK-MEL-5 melanoma) | GI50 (HCT-116 colon) [nM] | GI50 (BT-549 breast) | GI50 (OVCAR-4 ovarian) [nM]
O=c1ccc(N=Nc2ccccc2)ccc1O | 25100 nM | 70900 nM | 41100 nM | 19800 nM | 39300 nM | 22200 nM | 23600 nM | 26000 nM | 56600 nM | 69100 nM |  |  |  |  |  |  |  |  |  | 
O=C1CCC(c2ccccc2)=NN1c1nc2ccccc2s1 | > 94400 nM | > 100000 nM | > 73800 nM | 99100 nM | 64600 nM | > 84600 nM | 53100 nM | > 88200 nM | 82500 nM | > 100000 nM |  |  |  |  |  |  |  |  |  | 
CC(C)=C[C@@H]1C[C@H](C)[C@H]2CC[C@H](C)c3c(O)c(OC4OC(C)C(O)C(O)C4O)c(C)c1c32 (stereo partly specified) | 23900 nM | 27800 nM | 28500 nM | 27600 nM | 23300 nM | 10400 nM | 24700 nM | 22900 nM | 34800 nM | 24700 nM | 8350 nM | 14600 nM | 14800 nM | 14500 | 10900 | 2590 | 12000 nM | 10900 | 18900 nM | 12100
CC[C@H](C)[C@H](NC(=O)C12C3C4C1C1C2C3C41NC)C(=O)N(C)[C@H](C[C@@H](OC(C)=O)c1nc(C(=O)N[C@@H](Cc2ccccc2)C[C@H](C)C(=O)OC)cs1)C(C)C (stereo partly specified) | > 14300 nM | > 14300 nM | > 14300 nM | > 14300 nM | > 14300 nM | > 14300 nM | 2850 nM | > 14300 nM | 3510 nM | > 14300 nM | 713 nM | 4160 nM | > 6280 nM | 1270 | 446 | 46.9 | 159 nM | 346 | 214 nM | 1750
COC(=O)[C@@]12OC[C@]34[C@H]([C@@H](O)[C@@H]1O)[C@@]1(C)CC(=O)C(O)=C(C)[C@@H]1C[C@H]3OC(=O)[C@H](OC(=O)/C=C(\C)C(C)C)[C@@H]24 |  | 83.4 nM and 142 nM and 405 nM | 37.8 nM and 92.1 nM | 58.8 nM and 56.2 nM and 55 nM | 45.1 nM and 29.3 nM | 36.9 nM | 3.33 nM and 27.8 nM | 14.4 nM and 47.8 nM | 60 nM and 15.6 nM and 21.4 nM | 17 nM and 22.5 nM |  |  |  |  | 20 |  |  |  | 26.2 nM | 3.34
NNc1c(C(N)=O)c2c(N)ncnc2n1C1OC(CO)C(O)C1O (stereo unspecified) | 103 nM and 495 nM | 95.9 nM and 454 nM | 347 nM and 333 nM | 1500 nM and 3040 nM | 183 nM and 178 nM | 19.4 nM and 63.9 nM | 194 nM and 275 nM |  | 624 nM and 672 nM | 776 nM and 160 nM | 23.2 nM and 96.4 nM | < 14.3 nM and 24.6 nM | 28.5 nM and 50.7 nM | 29.2 | < 15.1 | 25.2 | 60.1 nM and 82.8 nM | < 10 | 35.5 nM and 40.7 nM | < 10.5
Nc1nc(SCc2ccccc2CCl)c2[nH]cnc2n1 | > 100000 nM | 71900 nM | 67800 nM | 31100 nM | 41700 nM | > 100000 nM | 23700 nM | 33800 nM | 29600 nM | 37300 nM | 21400 nM | 10500 nM | 20000 nM | 14500 | 16300 | 24800 | 10800 nM | 16200 | 13700 nM | 13200
